Experimental data from patent publication US11578084B2, “Condensed ring compounds having dopamine D3 receptor antagonistic effect” (Shionogi & Co., Ltd., priority 2018, dated 2023).
pKi: −log10 of the molar value. Read-outs that look alike come from different tables or passages of the source.

Assays:
[1] = target: human recombinant dopamine D2 receptor (Homo sapiens (Human), UniProt P14416); test: Test of binding inhibition for dopamine D2 receptor ([3H]-Methylspiperone SPA); settings: Jump-In HEK cell membranes, read-out: hD2_Ki
Chain of human recombinant dopamine D2 receptor (P14416 whole entry): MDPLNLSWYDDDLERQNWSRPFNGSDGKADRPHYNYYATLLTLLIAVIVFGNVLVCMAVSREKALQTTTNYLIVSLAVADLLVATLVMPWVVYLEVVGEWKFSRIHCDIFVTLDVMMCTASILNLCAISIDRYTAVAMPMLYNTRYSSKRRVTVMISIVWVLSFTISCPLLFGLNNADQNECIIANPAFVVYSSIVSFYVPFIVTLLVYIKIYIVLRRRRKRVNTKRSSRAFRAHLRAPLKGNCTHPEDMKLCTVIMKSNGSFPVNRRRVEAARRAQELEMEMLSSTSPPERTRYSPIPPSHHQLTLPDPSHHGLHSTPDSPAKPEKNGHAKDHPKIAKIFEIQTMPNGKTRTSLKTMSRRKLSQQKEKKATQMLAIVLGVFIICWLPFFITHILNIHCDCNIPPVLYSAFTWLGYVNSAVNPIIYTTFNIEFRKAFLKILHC
Method: (§1) (Experimental Conditions)
Cell membranes: Jump-In HEK cell membranes expressing human recombinant dopamine D2 receptor (2 μg/well)
(§2) Non-specific ligand: (final concentration) 10 μM Butaclamol [(+)-Butaclamol Hydrochloride, D033, Sigma]
(§3) SPA beads solution: SPA beads [WGA PVT SPA Scintillation Beads, RPNQ0001 (500 mg), RPNQ0060 (2 g), PerkinElmer] (0.2 mg/well)
(§4) Incubation time and temperature: 120 min at 25° C.
(§5) Butaclamol or the compounds of the present invention were weighed and DMSO was added to make a 10 mM solution. This solution was diluted to each concentration.
(§6) SPA beads were weighed and stirred in water to make a 50 mg/mL solution. Using this solution, a mixture with the cell membranes was prepared.
Jump-In HEK Cell membranes (final reaction amount: 2 μg protein/well), the SPA beads solution (final reaction amount: 0.2 mg/well) and the buffer solution were mixed, and the mixed solution was left still for 1 hour or more at 4° C. Then, 50 μL of the mixture was added to each well of the plate. […] Non-specific binding was calculated based on the radioactivity of [^3H]-Methylspiperone in the presence of 10 μM non-labeled Butaclamol. The total binding was calculated using the radioactivity of [^3H]-Methylspiperone in the absence of the compounds of the present invention (Vehicle). The Ki values were calculated from dose-response curves.
(§7) Binding activities of the compounds of the present invention were calculated from the following Binding Inhibition Rate (%): Inhibition Rate (%)=[1−(c−a)/(b−a)]×100 • a: Average cpm of non-specific binding • b: Average cpm of total binding • c: Cpm in the presence of each test compound

[2] = target: human recombinant dopamine D3 receptor (Homo sapiens (Human), UniProt P35462); test: Test of binding inhibition for dopamine D3 receptor ([3H]-Methylspiperone SPA); settings: Jump-In HEK cell membranes, 2 nM [3H]-Methylspiperone, 120 min at 25° C.; read-out: hD3_Ki
Chain of human recombinant dopamine D3 receptor (P35462 whole entry): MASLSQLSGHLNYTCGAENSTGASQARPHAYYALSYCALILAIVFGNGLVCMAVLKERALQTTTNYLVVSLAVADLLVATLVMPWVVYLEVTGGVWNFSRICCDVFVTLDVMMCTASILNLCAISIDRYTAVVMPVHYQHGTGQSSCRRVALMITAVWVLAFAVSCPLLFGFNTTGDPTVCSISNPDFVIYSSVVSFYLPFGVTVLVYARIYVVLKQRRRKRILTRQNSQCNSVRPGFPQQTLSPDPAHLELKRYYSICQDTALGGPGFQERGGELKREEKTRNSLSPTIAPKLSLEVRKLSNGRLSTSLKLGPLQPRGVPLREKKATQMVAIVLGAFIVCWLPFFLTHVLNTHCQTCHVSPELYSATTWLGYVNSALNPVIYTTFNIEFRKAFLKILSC
Method: as §1
Cell membranes: Jump-In HEK cell membranes expressing human recombinant dopamine D3 receptor (4 μg/well)
as §2, §3, §4, §5
[^3H]-Methylspiperone was weighed and the buffer solution was added to make a 6 nM solution.
as §6
Jump-In HEK Cell membranes (final reaction amount: 4 μg protein/well), the SPA beads solution (final reaction amount: 0.2 mg/well) and the buffer solution were mixed and the mixed solution was left still for 1 hour or more at 4° C. Then, 50 μL of the mixture was added to each well of the plate. In addition, 25 μL of 6 nM [^3H]-Methylspiperone (final concentration: 2 nM) was added to each well. […] Non-specific binding was calculated based on the radioactivity of [^3H]-Methylspiperone in the presence of 10 μM non-labeled Butaclamol. The total binding was calculated using the radioactivity of [H]-Methylspiperone in the absence of the compounds of the present invention (vehicle). The Ki values were calculated from dose-response curves.
as §7

[3] = 1.2 nM [3H]-Methylspiperone, 120 min at 25° C.

Compound | pKi [1, 3] | pKi [2] | pKi ([1]; [3H]-Methylspiperone 1.2 nM)
C[C@@H](Oc1ccc2c(n1)CCN(CC[C@H]1CC[C@H](NC(=O)Cc3cnn(C)n3)CC1)CC2)C(F)(F)F [Example I-128] | 6.29 | 10.14 | 
Cc1nnc(CC(=O)N[C@H]2CC[C@H](CCN3CCc4ccc(O[C@H](C)C(F)(F)F)nc4CC3)CC2)s1 [Example I-129] | 6.54 | 10.07 | 
Cc1nc(CC(=O)N[C@H]2CC[C@H](CCN3CCc4ccc(O[C@H](C)C(F)(F)F)nc4CC3)CC2)nn1C [Example I-130] | 5.92 | 9.31 | 
Cc1ncc(CC(=O)N[C@H]2CC[C@H](CCN3CCc4ccc(O[C@H](C)C(F)(F)F)nc4CC3)CC2)cn1 [Example I-131] | 6.39 | 9.46 | 
C[C@@H](Oc1ccc2c(n1)CCN(CC[C@H]1CC[C@H](NC(=O)c3cccc(=O)n3C)CC1)CC2)C(F)(F)F [Example I-132] | 6.52 | 9.92 | 
C[C@@H](Oc1ccc2c(n1)CCN(CC[C@H]1CC[C@H](NC(=O)COc3cnn(C)c3)CC1)CC2)C(F)(F)F [Example I-133] | 6.72 | 9.82 | 
Cc1cnc(CC(=O)N[C@H]2CC[C@](F)(CCN3CCc4ccc(CCC(F)(F)F)nc4CC3)CC2)o1 [Example I-141] | < 5.64 | 9.39 | 
Cn1ncc(CC(=O)N[C@H]2CC[C@](F)(CCN3CCc4ccc(CCC(F)(F)F)nc4CC3)CC2)n1 [Example I-144] | 5.82 | 9.49 | 
O=C(N[C@H]1CC[C@](F)(CCN2CCc3nc(OCC(F)(F)F)sc3CC2)CC1)c1cccnc1C(F)F [Example I-159] | 6.24 | 9.44 | 
O=C(N[C@H]1CC[C@](F)(CCN2CCc3nc(OCC(F)F)sc3CC2)CC1)c1cccnc1C(F)F [Example I-160] | 5.96 | 9.08 | 
O=C(N[C@H]1CC[C@H](CCN2CCc3nc(OCC(F)F)sc3CC2)CC1)c1cccnc1C(F)F [Example I-161] | 6.03 | 9.49 | 
CC(F)(F)COc1nc2c(s1)CCN(CC[C@]1(F)CC[C@@H](NC(=O)c3cccnc3C(F)F)CC1)CC2 [Example I-162] | 6.13 | 9.25 | 
CC(F)(F)COc1nc2c(s1)CCN(CC[C@H]1CC[C@H](NC(=O)c3cccnc3C(F)F)CC1)CC2 [Example I-163] | 6.37 | 9.51 | 
O=C(N[C@H]1CC[C@H](CCN2CCc3nc(OC4CC(F)(F)C4)sc3CC2)CC1)c1cccnc1C(F)F [Example I-168] | 6.00 | 9.51 | 
C[C@@H](Oc1ccc2c(n1)CCN(CC[C@]1(F)CC[C@@H](NC(=O)Cc3cnn(C)n3)CC1)CC2)C(F)(F)F [Example I-174] | 6.43 | 9.48 | 
Cc1nc(CC(=O)N[C@H]2CC[C@](F)(CCN3CCc4ccc(O[C@H](C)C(F)(F)F)nc4CC3)CC2)nn1C [Example I-180] | 6.07 | 9.07 | 
Cn1c(C(=O)NC23CCC(CCN4CCc5nc(OCC(F)(F)F)sc5CC4)(CC2)CC3)cccc1=O [II-1] |  | 9.77 | 6.08
CN1Cc2c(C(=O)NC34CCC(CCN5CCc6nc(OCC(F)(F)F)sc6CC5)(CC3)CC4)cccc2C1=O [II-2] |  | 10.10 | < 5.66
O=C(NC12CCC(CCN3CCc4nc(OCC(F)(F)F)sc4CC3)(CC1)CC2)c1cccnc1C(F)F [II-3] |  | 9.54 | 5.85
Cn1ncc(CC(=O)NC23CCC(CCN4CCc5nc(OCC(F)(F)F)sc5CC4)(CC2)CC3)n1 [II-4] |  | 9.80 | 5.85
Cc1nnc(CC(=O)NC23CCC(CCN4CCc5nc(OCC(F)(F)F)sc5CC4)(CC2)CC3)o1 [II-5] |  | 9.70 | 5.89
Cc1ncc(CC(=O)NC23CCC(CCN4CCc5nc(OCC(F)(F)F)sc5CC4)(CC2)CC3)cn1 [II-6] |  | 9.46 | 5.92
Cc1ncccc1C(=O)NC12CCC(CCN3CCc4nc(OCC(F)(F)F)sc4CC3)(CC1)CC2 [II-7] |  | 9.41 | 5.77
CN1Cc2c(C(=O)NC34CCC(CCN5CCc6nc(OCC(F)F)sc6CC5)(CC3)CC4)cccc2C1=O [II-10] |  | 9.30 | < 5.64
Cc1ncccc1C(=O)NC12CCC(CCN3CCc4ccc(OCC(F)F)nc4CC3)(CC1)CC2 [II-13] |  | 9.25 | 5.68

Compound | pKi [1, 3] | pKi [2] | pKi ([1]; [3H]-Methylspiperone 1.2 nM)
Cc1cnc(CC(=O)NC23CCC(CCN4CCc5ccc(OCC(C)(F)F)nc5CC4)(CC2)CC3)o1 [II-14] |  | 9.64 | 6.12
Cc1ncc(/C=C/C(=O)NC23CCC(CCN4CCc5nc(OCC(F)(F)F)sc5CC4)(CC2)CC3)cn1 [II-15] |  | 9.80 | 6.62
Cc1nnc(CC(=O)N[C@H]2CC[C@](F)(CCN3CCc4ccc(CCC(F)(F)F)nc4CC3)CC2)s1 [III-1] | < 5.64 | 9.85 | 
Cc1nc(CC(=O)N[C@H]2CC[C@](F)(CCN3CCc4ccc(CCC(F)(F)F)nc4CC3)CC2)nn1C [III-2] | 5.92 | 9.80 | 
Cc1cc(CC(=O)N[C@H]2CC[C@](F)(CCN3CCc4ccc(CCC(F)(F)F)nc4CC3)CC2)on1 [III-3] | < 5.64 | 10.54 | 
Cc1nnc(CC(=O)N[C@H]2CC[C@H](CCN3CCc4nc(O[C@@H](C)C(F)(F)F)sc4CC3)CC2)o1 [III-4] | 6.11 | 9.80 | 
C[C@H](Oc1nc2c(s1)CCN(CC[C@H]1CC[C@H](NC(=O)c3cccc(=O)n3C)CC1)CC2)C(F)(F)F [III-5] | 6.00 | 9.64 | 
C[C@H](Oc1nc2c(s1)CCN(CC[C@H]1CC[C@H](NC(=O)Cc3cnn(C)n3)CC1)CC2)C(F)(F)F [III-6] | 5.80 | 9.82 | 
Cc1nnc(CC(=O)N[C@H]2CC[C@H](CCN3CCc4ccc(O[C@@H](C)C(F)(F)F)nc4CC3)CC2)o1 [III-7] | 6.54 | 10.05 | 
Cc1nnc(CC(=O)N[C@H]2CC[C@](F)(CCN3CCc4nc(OCC(F)(F)C(F)F)sc4CC3)CC2)o1 [III-8] | 6.32 | 9.80 | 
Cn1ncc(CC(=O)N[C@H]2CC[C@](F)(CCN3CCc4nc(OCC(F)(F)C(F)F)sc4CC3)CC2)n1 [III-9] | 6.11 | 10.09 | 
Cc1ncccc1C(=O)N[C@H]1CC[C@H](CCN2CCc3ccc(CCC(F)(F)F)nc3CC2)CC1 [I′-1] |  | 9.37 | 6.04
COc1cc(CC(=O)N[C@H]2CC[C@H](CCN3CCc4ccc(CCC(F)(F)F)nc4CC3)CC2)on1 [I′-2] |  | 9.68 | < 5.64
Cc1nnc(CC(=O)N[C@H]2CC[C@H](CCN3CCc4ccc(CCC(F)(F)F)nc4CC3)CC2)o1 [I′-3] |  | 9.74 | 5.96
Cn1cc(CC(=O)N[C@H]2CC[C@H](CCN3CCc4ccc(CCC(F)(F)F)nc4CC3)CC2)cn1 [I′-4] |  | 9.66 | 5.92
Cn1c(C(=O)N[C@H]2CC[C@H](CCN3CCc4ccc(CCC(F)(F)F)nc4CC3)CC2)cccc1=O [I′-5] |  | 9.66 | 6.21
Cc1ncc(OCC(=O)N[C@H]2CC[C@H](CCN3CCc4ccc(CCC(F)(F)F)nc4CC3)CC2)cn1 [I′-7] |  | 9.92 | 5.96
Cc1cc(OCC(=O)N[C@H]2CC[C@H](CCN3CCc4ccc(CCC(F)(F)F)nc4CC3)CC2)no1 [I′-8] |  | 10.15 | < 5.64
Cn1cc2c(C(=O)N[C@H]3CC[C@H](CCN4CCc5ccc(CCC(F)(F)F)nc5CC4)CC3)ccc(F)c2n1 [I′-9] |  | 9.96 | 6.28
Cc1ncc(CC(=O)N[C@H]2CC[C@H](CCN3CCc4ccc(CCC(F)(F)F)nc4CC3)CC2)o1 [I′-10] |  | 9.64 | 5.96
Cc1nc(CC(=O)N[C@H]2CC[C@H](CCN3CCc4ccc(CCC(F)(F)F)nc4CC3)CC2)no1 [I′-11] |  | 9.74 | 5.92
Cc1nnc(CC(=O)N[C@H]2CC[C@H](CCN3CCc4ccc(CCC(F)(F)F)nc4CC3)CC2)s1 [I′-12] |  | 9.54 | 6.09
Cc1cnc(OCC(=O)N[C@H]2CC[C@H](CCN3CCc4ccc(CCC(F)(F)F)nc4CC3)CC2)cn1 [I′-13] |  | 9.37 | 6.04
Cc1nc(CC(=O)N[C@H]2CC[C@H](CCN3CCc4ccc(CCC(F)(F)F)nc4CC3)CC2)nn1C [I′-14] |  | 9.68 | < 5.64
Cc1nc(CC(=O)N[C@H]2CC[C@H](CCN3CCc4ccc(CCC(F)(F)F)nc4CC3)CC2)n(C)n1 [I′-15] |  | 8.85 | 5.77
